Data as given in US6965039B2, “7-carboxy-flavone derivatives preparation method and therapeutic use” (Negma-Lerads, priority 2000, dated 2005).

Tests used:
IL-1 (interleukin 1) = test: Inhibition of IL-1 secretion on PBMC cells (method of Schindler); format: cell-based; details: tests in duplicate
Procedure: (§1) The inhibiting activity on the secretion of inflammatory cytokines of the compounds of the invention was tested in vitro, more particularly on the secretion of IL-1 (interleukin 1) and on IL-6 and TNFα (tumor necrosis factor), which are the main cytokines related to the arthrotic process.
(§2) The tests on these three cytokines were carried out on PBMC (Peripheral Blood Mononuclear Cells) cells according to the method of Schindler (R. Schindler et al., Blood, (1990) 75, 40-47) using cycloheximide (IL-1) and dexamethasone (IL-6, TNFα) as reference products.
(§3) The results of the tests carried out with the flavone derivatives of the invention described in examples 1, 4 and 6 above [sic] are combined in the following table. The tests were carried out in duplicate, at concentrations of 1 and 10 μM. The results are expressed as percentage of inhibition.

IL-6 = test: Inhibition of IL-6 secretion on PBMC cells (method of Schindler); format: cell-based; details: tests in duplicate
Procedure: as §1, §2, §3

[1] = system: TNFα (tumor necrosis factor); test: Inhibition of TNFα secretion on PBMC cells (method of Schindler); format: cell-based; details: tests in duplicate, read-out: TNFα, percentage of inhibition
Procedure: as §1, §2, §3

prostaglandins (PGE2) = test: Secretion of prostaglandins (PGE2) on differentiated HL-60 cells (method of Honda); format: cell-based
Procedure: The effect of the derivatives of the invention on the secretion of prostaglandins (PGE2), which increase articular inflammation, and of leukotriene (LTB4) was measured on differentiated HL-60 cells using the methods of Honda (M. Honda et al., Diabetes Res., (1990) 14, 43-46) and of Bennett (C. F. Bennett et al., Biochem. J., (1993) 289, 33-39), respectively, using indomethacin and nordihydroguaiaretic acid as reference products.

[2] = read-out: IL1β, percentage of inhibition
[3] = read-out: IL6, percentage of inhibition

| Structure (SMILES) | inhibition at 1 µM (IL-1 (interleukin 1); 1 μM, read-out: IL1β, percentage of inhibition) [%] | inhibition at 10 µM (IL-1 (interleukin 1); [2]) [%] | inhibition at 1 µM (IL-6; 1 μM, read-out: IL6, percentage of inhibition) [%] | inhibition at 10 µM (IL-6; [3]) [%] | melting point | inhibition at 1 µM ([1]; 1 μM) [%] | inhibition at 10 µM ([1]; 10 μM) [%] | IL1β, percentage of inhibition (IL-1 (interleukin 1); 1 μM) [%] | IL6, percentage of inhibition (IL-6; 1 μM) [%] | effect on the secretion of prostaglandins (prostaglandins (PGE2)) |
| --- | --- | --- | --- | --- | --- | --- | --- | --- | --- | --- |
| O=C(O)c1cc(O)c2c(=O)cc(-c3ccccc3)oc2c1 [Example 1, 5-Hydroxy-2-phenyl-4-oxo-4H-chromene-7-carboxylic acid] | 15 | 96 | 50 | 98 | 270 °C (dec.) | 61 | 32 | – | – | – |
| COc1ccc(-c2cc(=O)c3c(O)cc(C(=O)O)cc3o2)cc1 [Example 4, 5-Hydroxy-0.2-(4′-methoxyphenyl)-4-oxo-4H-chromene-7-carboxylic acid] | – | – | – | – | – | – | – | <10 | 56 | stimulating the secretion of prostaglandins |
| O=C(O)c1cc(O)c2c(=O)cc(-c3ccc(C(F)(F)F)cc3)oc2c1 [Example 6, 5-Hydroxy-2-(4′-trifluoromethylphenyl)-4-oxo-4H-chromene-7-carboxylic acid] | – | 72 | – | 100 | – | – | – | – | – | – |
